{"source": "patent US5525347A", "about": "“Composition and methods for treating performance anxiety” (Medical University of South Carolina, priority 1995, dated 1996)", "origin": "cited, not measured here", "key": {"social phobia": {"test_system": "social phobia", "conditions": "case reports; 10-120 mg"}, "[1]": {"assay": "not given", "remark": "listed apart in the source"}}, "note": "Structures can show the parent of a compound that is named as a salt."}
{"smiles": "CC(C)NCC(O)COc1cccc2ccccc12", "note": "(stereo not shown) [Propranolol Hydrochloride, 1-(Isopropylamino)-3-(1-napthyloxy)-2-propanol hydrochloride]", "values": [{"measurement": "efficacy in social phobia", "setting": "social phobia", "result": "suggest efficacy"}, {"measurement": "Solubility in chloroform", "setting": "chloroform", "result": "slightly soluble"}, {"measurement": "Solubility in ether", "setting": "ether", "result": "practically insoluble"}, {"measurement": "Solubility in alcohol", "setting": "volume of alcohol for 1 g", "result": 20, "unit": "mL"}, {"measurement": "Solubility in water", "setting": "volume of water for 1 g", "result": 20, "unit": "mL"}, {"measurement": "stability to heat", "setting": "[1]; heat", "result": "stable to heat"}, {"measurement": "stability in light", "setting": "[1]; light", "result": "unstable in light"}]}
